Assay results from US10548883B2, “Benzotriazole-derived α and β-unsaturated amide compound used as TGF-β RI inhibitor” (GENFLEET THERAPEUTICS (SHANGHAI) INC., priority 2016, dated 2020).
Several values for one entry are separate records, joined by “and”; a condition that tells them apart may be missing. Equal entries are not always repeated.

Legend:
[1] = tested on: NIH/3T3 mouse embryonic cells; experiment: Test of proliferation inhibition on NIH/3T3 mouse embryonic cells (CellTiter-Glo, with TGF-β1); format: cell-based; conditions: NIH3T3, 0.2 ng/mL TGF-β1, 72 h
Experimental: Promega's Luminescent Cell Viability Assay (CellTiter-Glo® method, i.e. ATP fluorescence activity detection and analysis), the compound is added to the cell culture plate for incubation. A substrate buffer for detecting intracellular ATP content was added on the day of detection. Slightly shake and centrifuge at 1000 rpm for 1 min. Tested after standing for 10 min. The assay plate was analyzed using Envision multifunctional enzyme marker of PerkinElmer, Inc., and the analysis mode was fluorescence detection, and the data was expressed by the reading of chemiluminescence signal at 400-700 nm.
i) When the cell growth coverage is about 70%, the cell layer was washed with 10 mL of Duchenne phosphate buffer (D-PBS) which is calcium- and magnesium-free, then 2 mL of 0.25% trypsin-EDTA digest was added. The cell culture flask was placed in a CO2 carbon dioxide incubator at 37° C. and incubated for 3-5 min, then 8 mL of complete culture medium containing 2% FBS DMEM cells was added, and the cells were puffed evenly into single cell and counted by Vi-cell cytometer, and NIH/3T3 cell suspension was diluted to 0.375×10^5/mL cells.
ii) 50 μL of 2% DMEM-containing medium was added around the 384-well cell culture plate, then 40 μL of cell suspension was added to the remaining wells to 1500 cells per well. The distribution of the cells was observed under a microscope, and the cell plates were placed in a cell culture incubator with 5% CO2 at 37° C.
iii) Dilution of the compound refers to the preparation of the compound.
iv) A mixture of 2% fetal bovine serum containing 1 ng/mL TGF-β1 in DMEM medium was added manually to the compound intermediate plate, 20 μL per well.
v) The compound intermediate plate was shook slightly for 10 sec at 1000 rpm/min and centrifuge for 10 sec.
vi) 10 uL of the mixed liquid from steps 4 and 5 of each well was transferred to the inoculated cell plate to a final volume of 50 μL by using a Bravo liquid workstation, and the final concentration of TGF-β1 was diluted to 0.2 ng/mL, and centrifuged for 10 sec at 1000 rpm/min. The plates were placed in an incubator with 5% carbon dioxide at 37° C., 5% carbon dioxide for 72 h. The final concentration of the compound is: (unit: μM)
vii) The cell plate containing the compound was cultured in a cell incubator with 5% CO2 at 37° C. for 3 days.
viii) After that, 25 μL of ATP fluorescence activity detection solution was added to each well of the cell plate, then shook gently for about 1 min and centrifuged at 500 rpm/min for about 30 sec, and the reading was performed in an Envision instrument after standing at room temperature for 10 min in the dark.

TGF-βRI = target: T1, TGF-βRI (Homo sapiens, UniProt P36897); experiment: Test of inhibitory activity of TGFβ-RI in vitro; format: biochemical; conditions: 10 μM ATP
T1 sequence (P36897 34-503): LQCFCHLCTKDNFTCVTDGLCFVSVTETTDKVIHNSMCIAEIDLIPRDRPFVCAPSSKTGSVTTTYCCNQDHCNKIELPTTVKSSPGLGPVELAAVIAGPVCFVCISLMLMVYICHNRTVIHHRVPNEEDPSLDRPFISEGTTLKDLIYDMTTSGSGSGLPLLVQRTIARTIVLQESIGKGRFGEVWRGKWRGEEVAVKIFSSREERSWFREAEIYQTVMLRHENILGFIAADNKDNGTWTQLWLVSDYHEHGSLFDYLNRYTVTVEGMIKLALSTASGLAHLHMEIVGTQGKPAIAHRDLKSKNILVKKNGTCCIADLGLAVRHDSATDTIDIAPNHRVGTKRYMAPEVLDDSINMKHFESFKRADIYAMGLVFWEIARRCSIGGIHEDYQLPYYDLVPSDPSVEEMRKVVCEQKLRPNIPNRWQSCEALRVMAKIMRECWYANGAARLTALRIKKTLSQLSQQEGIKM
Experimental: i) Test compound: the IC50 was determined by diluting into 10 gradient points with each gradient by three-fold dilution and with a starting concentration of 5 μM.
ii) The IC50 of reference compound LDN193189 was determined by diluting into 10 gradient points with each gradient by three-fold dilution and with a starting concentration of 20 μM.
iii) The reaction system contains 10 μM ATP.
iv) Calculate the IC50 value by curve fitting when the percentage of enzyme activity (compared to the solvent group) is below 65% at the highest concentration of the sample.

CT-26 cells = experiment: Tumor cell proliferation inhibition in BALB/c mouse model of subcutaneously transplanted CT-26 cells, alone or combined with BioXcell-mPD-L1; format: in vivo; conditions: for Tumor volume: average ± SEM, small molecules 75 mg/kg PO twice a day, BioXcell-mPD-L1 10 mg/kg IP twice a week
Experimental: The following table lists the animal grouping and dosing regimen of embodiment 1, the positive reference compound LY2157299 and the BioXcell PD-L1 monoclonal antibody (BioXcell-mPD-L1), which are used alone or in combination in vivo.
Mouse colon cancer CT-26 cells were cultured in vitro in a single layer, and culture conditions is RPMI1640 medium (Medium No. 1640, Roswell Parker Memorial Institute) supplemented with 10% fetal bovine serum at 37° C., 5% CO2. Passage was routinely digested with trypsin-EDTA twice a week. When the cell saturation is 80%-90%, the cells are collected, counted, and inoculated.
0.1 mL (1×10^5) CT-26 cells were subcutaneously inoculated into the right back of each BALB/c mouse. The mice were administered in groups according to the body weight of the mice on the second day after cell inoculation.
The experimental indicator is to investigate whether tumor growth is inhibited, delayed or cured. Tumor diameters were measured with Vernier calipers twice a week. The tumor volume is calculated as: V=0.5a×b^2, and a and b represent the long and short diameters of the tumor, respectively.
The antitumor effect of the compound was evaluated by TGI (%) or tumor proliferation rate T/C (%). TGI (%) reflects the tumor growth inhibition rate. Calculation of TGI (%): TGI (%)=[(1-(mean tumor volume at the end of administration of a treatment group—mean tumor volume at the start of administration of the treatment group))/(mean tumor volume at the end of treatment of the solvent control group)—mean tumor volume at the start of treatment of the solvent control group)]×100%.
Tumor proliferation rate T/C (%): The formula is as follows: T/C %=T/C×100% (T: treatment group; C: negative control group).
Tumor weights were measured after the end of the experiment and the percentage of T/Cweight was calculated. Tweight and Cweight represent the tumor weights of the drug-administered group and the vehicle control group, respectively.
Statistical analysis, including mean and standard error (SEM) of tumor volume at each time point for each group (see Table 4 for specific data). […] T-test was used for comparison between the two groups, and one-way analysis of variance was used for comparison between three or more groups. If there was a significant difference in F values, the Gass-Howell method was used to test. If there is no significant difference in F values, the Dunnet (2-sided) method is used for analysis. All data analysis was performed with SPSS 17.0. A significant difference was considered at p<0.05.

## Cc1cccc(-c2nn3c(c2-c2ccc4ncnn4c2/C=C/C(N)=O)CCC3)n1 [Embodiment 1]
[1]
  IC50: 0.5 to 2 µM
TGF-βRI
  IC50: 0.001 to 0.05 µM
CT-26 cells; day 10 of administration
  Tumor volume: 102 ± 19 mm^3
CT-26 cells; day 13 of administration
  Tumor volume: 339 ± 89 mm^3
CT-26 cells; day 15 of administration
  Tumor volume: 552 ± 147 mm^3
CT-26 cells; day 17 of administration
  Tumor volume: 874 ± 240 mm^3
CT-26 cells; day 20 of administration
  Tumor volume: 1331 mm^3 and 1331 ± 394 mm^3
CT-26 cells; twenty days after start of administration, 75 mg/kg PO and/or 10 mg/kg IP
  Tumor proliferation rate T/C: 51%
CT-26 cells; twenty days after start of administration, 75 mg/kg and/or 10 mg/kg
  Antitumor effect compared with the solvent control group: no significant antitumor effect
